The record followed here is patent US20180311220A1, “TREATMENT OF CANCERS WITH ACQUIRED RESISTANCE TO KIT INHIBITORS” (Bayer HealthCare LLC, priority 2007, published 2018).

Common to all, as to type: cell-based, murine
Experiment [1] deals with Ba/F3 cells expressing human c-KIT exon 11 deletion + N822K. The experiment can be described thus: Ba/F3 cell proliferation assay (CellTiter-Glo), c-KIT exon 11 deletion + N822K. The conditions noted are these: BaF3; Exon 11 + N822K; n ≥ 3; 72 h incubation; read-out: Average IC50 for c-KIT-expressing Ba/F3 cellular proliferation, Exon 11 + N822K. Here is the method:
(§1) The cDNA encoding full length human c-KIT with a deletion in exon 11 that removed amino acid residues 557-558 was ligated into the mammalian expression vector pClneo (Promega). […] All mutations were confirmed by DNA sequencing.
(§2) Selective pressure was applied to the transfected cells by removing IL-3 from the culture medium. After IL-independent populations, further selective pressure was applied by also growing the cells in the presence of 1 mg/mL G418. […] The stable pools were further characterized by sequencing genomic DNA to confirm the presence of the transfected c-KIT cDNA.
(§3) This assay utilizes cellular ATP as a marker for cell proliferation/viability. On day 1, Ba/F3 cells were plated in 96 well dishes (Costar 3603) at 10,000 cells per well in 10% FBS in RPMI medium with 1 mg/ml G418. […] Plates were then incubated in a 5% CO2 incubator at 37° C. for 3 days. […] The cells were then incubated on a shaker for 5 minutes at room temperature, and luminescence was measured on a Victor 5 (Perkin Elmer) spectrophotometer.
(§4) Growth inhibition was measured by comparing luminescence signal from treated vs. untreated cells in assay plates, and the IC50 analysis of cell proliferation inhibition by compounds was analyzed using Analyze 5 in-house software. The IC50 values are mean values calculated from at least three experiments.
Background: Cellular ATP, detected with luciferase, serves as a proxy for viable cell number.

The subject of experiment [2] is Ba/F3 cells expressing human c-KIT exon 11 deletion + D816G. The experiment can be described thus: Ba/F3 cell proliferation assay (CellTiter-Glo), c-KIT exon 11 deletion + D816G. The conditions noted are these: BaF3; Exon 11 + D816G; n ≥ 3; 72 h incubation; read-out: Average IC50 for c-KIT-expressing Ba/F3 cellular proliferation, Exon 11 + D816G. Here is the method:
as §1, §2, §3, §4

In experiment [3] the test system is Ba/F3 cells expressing human c-KIT with exon 11 deletion (residues 557-558). The experiment can be described thus: Ba/F3 cell proliferation assay (CellTiter-Glo), c-KIT exon 11 deletion. The conditions noted are these: BaF3, n ≥ 3, 72 h incubation, read-out: Average IC50 for c-KIT-expressing Ba/F3 cellular proliferation, Exon 11 Deletion. Here is the method:
as §1, §2, §3, §4

Experiment [4] deals with Ba/F3 cells expressing human c-KIT exon 11 deletion + Y823D. The experiment can be described thus: Ba/F3 cell proliferation assay (CellTiter-Glo), c-KIT exon 11 deletion + Y823D. The conditions noted are these: BaF3; Exon 11 + Y823D; n ≥ 3; 72 h incubation; read-out: Average IC50 for c-KIT-expressing Ba/F3 cellular proliferation, Exon 11 + Y823D. Here is the method:
as §1, §2, §3, §4

Experiment [5] concerns Ba/F3 cells expressing human c-KIT exon 11 deletion + V654A. The experiment can be described thus: Ba/F3 cell proliferation assay (CellTiter-Glo), c-KIT exon 11 deletion + V654A. The conditions noted are these: BaF3; Exon 11 + V654A; n ≥ 3; 72 h incubation; read-out: Average IC50 for c-KIT-expressing Ba/F3 cellular proliferation, Eson 11 + V654A. Here is the method: as §1, §2, §3, §4

Experiment [6] relates to Ba/F3 cells expressing human c-KIT exon 11 deletion + T6701. The experiment can be described thus: Ba/F3 cell proliferation assay (CellTiter-Glo), c-KIT exon 11 deletion + T6701. The conditions noted are these: BaF3; Exon 11 +T6701; n ≥ 3; 72 h incubation; read-out: Average IC50 for c-KIT-expressing Ba/F3 cellular proliferation, Exon 11 +T6701. Here is the method:
as §1, §2, §3, §4

For `CNC(=O)c1cc(Oc2ccc(NC(=O)Nc3ccc(Cl)c(C(F)(F)F)c3)c(F)c2)ccn1` [DAST, 4{4-[3-(4-chloro-3-trifluoromethylphenyl)-ureido]-3-fluorophenoxy}-pyridine-2-carboxylic acid methylamide], the IC50 in experiment [1] was 0.012 µM; in experiment [2] it was 0.014 µM; in experiment [3], 0.007 µM; in experiment [4], 0.129 µM; in experiment [5] it was 0.038 µM; in experiment [6], 0.019 µM.
